Laboratory results: US7504522B2, “Azetidinecarboxamide derivatives and their use in the treatment of cb1 receptor mediated disorders” (Vernalis Research Limited, priority 2003, dated 2009)

Legend:
[1] = target: T1, recombinant human CB1 receptors (Homo sapiens, UniProt P21554); assay: Binding to CB1 receptors; conditions: [^3H]-SR-141716A 1 nM; membranes from HEK293 cells expressing recombinant hCB1; Ki calculated from IC50 by Cheng-Prusoff
T1 construct: expressed in transfected cells; host or cells: HEK293 cells (membranes)
T1 sequence (P21554 whole entry): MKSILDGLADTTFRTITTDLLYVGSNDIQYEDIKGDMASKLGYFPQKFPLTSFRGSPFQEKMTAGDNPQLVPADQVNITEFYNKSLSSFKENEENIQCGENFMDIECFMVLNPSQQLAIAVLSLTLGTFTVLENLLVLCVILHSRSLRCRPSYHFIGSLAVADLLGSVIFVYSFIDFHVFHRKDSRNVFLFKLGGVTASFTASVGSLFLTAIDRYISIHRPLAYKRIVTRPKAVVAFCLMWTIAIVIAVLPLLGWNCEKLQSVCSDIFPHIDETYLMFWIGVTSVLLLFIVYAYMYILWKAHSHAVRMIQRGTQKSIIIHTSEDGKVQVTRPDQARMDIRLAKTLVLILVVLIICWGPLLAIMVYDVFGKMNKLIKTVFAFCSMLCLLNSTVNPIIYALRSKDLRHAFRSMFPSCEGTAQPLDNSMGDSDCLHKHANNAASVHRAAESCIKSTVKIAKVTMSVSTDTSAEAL
Procedure: The binding of compounds of Formula I to recombinant human CB1 receptors was determined in vitro by standard methods, with reference to the procedure described by Rinaldi-Carmona et al. (Rinaldi-Camona, M., Pialot, F., Congy, C., Redon, E., Barth, F., Bachy, A., Breliere, J. C., Soubre, P., LeFur, G., Life Sci. 1996, 58(15), 1239-1247). Membranes were prepared from HEK293 cells expressing recombinant hCB1 receptors. Binding assays are performed in a total volume of 250 μL, containing [^3H]—SR-141716A (1 nM final concentration), membranes and test compound. Non-specific binding is determined using CP55,940 (10 μM). Serial dilutions are performed starting from test compounds as 10 mM solutions in DMSO. Compounds are tested over the concentration range 10^−10 M to 10^−5 M. Ki values are calculated from IC50 values using the Cheng-Prusoff equation.

male C57B1/6 mice = assay: Blockade of Δ^9-THC induced hypolocomotion in mice; assay type: in vivo; conditions: p.o.; antagonism of reduction in locomotor behaviour induced by 3 mg/kg i.p. Δ^9-THC
Procedure: The in vivo activity of compounds of formula (I) was assayed for ability to antagonise the reduction in locomotor behaviour induced by acute systemic administration of Δ^9-THC in male C57B1/6 mice. The procedure was as follows.
Test compounds are assessed following acute oral or intraperitoneal administration at a dose of 30 mg/kg.
The route of test compound administration, drug volume and injection-test-interval are dependent upon the compounds used. 10 min before testing, a 3 mg/kg dose Δ^9-THC (or vehicle) is administered to mice by the i.p. route. […] The light beams are arranged on a 7 by 4 matrix on a metal grid. 16 grids are connected in series and Perspex boxes, 20 (width)×40 (length)×20 (height) cm, with a flat perforated, Perspex lid are placed in each grid. Mice are placed singly in Perspex boxes and the recording of activity in all 16 boxes starts simultaneously. The mice are left undisturbed to explore the novel activity monitor boxes for 15 minutes while beam breaks are recorded.
Locomotor activity data are subjected to one-way analysis of variance (ANOVA) with drug treatment as a between-subjects factor. […] Significant differences between the vehicle/Δ^9-THC group and Test compound/Δ^9-THC groups are assessed by Newman-Keuls test. All statistical analyses were performed using Statistica Software, Version 6.0 (Statsoft Inc.) and Microsoft Excel 7.0 (Microsoft Corp.).

[2] = tested on: male food-deprived Lister-hooded rats; assay: Regulation of feeding behaviour (food consumption); assay type: in vivo; conditions: p.o.; acute administration; food consumption after 18-hour food withdrawal
Procedure: The in vivo activity of compounds of formula (I) was assayed for ability to regulate feeding behaviour by measuring food consumption in male food-deprived Lister-hooded rats as follows.
Test compounds are assessed following acute administration.
The anorectic drug sibutramine, or the reference CB1 receptor antagonist, SR141716A, normally serves as a positive control. The route of drug administration, drug volume and injection-test-interval are dependent upon the compounds used. The injection-test-interval is the time between dosing and food re-presentation. Typically, animals are fasted such that at the time of food re-presentation food has been withdrawn for an 18-hour period. Food consumption is assayed at pre-determined time points (typically 1, 2 and 4 hours after administration). Food intake data are subjected to one-way analysis of variance (ANOVA) with drug as a between-subjects factor. […] All statistical analyses were performed using Statistica Software, Version 6.0 (Statsoft Inc.) and Microsoft Excel 7.0 (Microsoft Corp.).

SMILES | Ki [1] [nM] | Active dose (mg/kg), route (male C57B1/6 mice) | M.E.D (mg/kg), route [2]
CC(C)(C)NC(=O)N1CC(OC(c2ccc(Cl)cc2)c2ccc(Cl)cc2Cl)C1 (centres unmarked) [Example 1, 3-(2,4,4′-trichlorobenzhydryloxy)-N-(tert-butyl)azetidine-1-carboxamide] | 4.7 | 30, p.o. mg/kg | 30, p.o. mg/kg
CC(C)(C)NC(=O)N1CC(OC(c2ccc(Cl)cc2)c2ccccc2Cl)C1 (centres unmarked) [Example 4, 3-(2,4′-dichlorobenzhydryloxy)-N-(tert-butyl)azetidine-1-carboxamide] | 4.5 | 30, p.o. mg/kg | 30, p.o. mg/kg
CC(C)(C)NC(=O)N1CC(OC(c2ccc(Cl)cc2)c2ccccc2C(F)(F)F)C1 (racemic) [Example 81, 3-[2-(trifluoromethyl)-4′-chlorobenzhydryloxy]-N-(tert-butyl)azetidine-1-carboxamide] | 2.3 | 30, p.o. mg/kg | 3, p.o. mg/kg
O=C(NC12CC3CC(CC(C3)C1)C2)N1CC(OC(c2ccc(Cl)cc2)c2ccc(Cl)cc2)C1 [Example 30, 3-(4,4′-dichlorobenzhydryloxy)-N-(1-adamantyl)azetidine-1-carboxamide] | 19 | – | –
CC(C)(C)NC(=O)N1CC(OC(c2ccc(Br)cc2F)c2ccccc2C(F)(F)F)C1 (centres unmarked) [Example 94, 3-[2-(trifluoromethyl)-2′-fluoro-4′-bromobenzhydryloxy]-N-(tert-butyl)azetidine-1-carboxamide] | 1.3 | 30, p.o. mg/kg | 10, p.o. mg/kg
CC(C)(C)NC(=O)N1CC(OC(c2ccc(Cl)cc2)c2ccccc2C(F)(F)F)C1 (single isomer, unassigned) [Example 139, 3-[(R*)-2-(trifluoromethyl)-4′-chlorobenzhydryloxy]-N-(tert-butyl)-azetidine-1-carboxamide] | 0.6 | – | 1, p.o. mg/kg
CC(C)(C)NC(=O)N1CC(OC(c2ccc(S(C)(=O)=O)cc2)c2ccccc2C(F)(F)F)C1 (single isomer, unassigned) [Example 140, 3-[(S*)-2-(trifluoromethyl)-4′-(methylsulphonyl)benzhydryloxy]-N-(tert-butyl)azetidine-1-carboxamide] | 27 | – | –
CC(C)(C)NC(=O)N1CC(OC(c2ccc(Cl)cc2)c2ccc(Cl)cc2)C1 [Example 28, 3-(4,4′-dichlorobenzhydryloxy)-N-(tert-butyl)azetidine-1-carboxamide] | 80 | – | –
